Experimental data published in patent US11345673B2, “1-phenylpropanone compounds and use thereof” (UNIVERSITA' DEGLI STUDI DI PADOVA, priority 2016, dated 2022).

Legend:
[1] = tested on: hepatocarcinoma (HUH7.5) cells; experiment: Proapoptotic effect by flow cytofluorometry, HUH7.5 cells; format: cell-based; settings: Homo sapiens, 24 hours incubation, three experiments in triplicate, read-out: IC50 ± S.D. (concentration required to cause 50% apoptosis), HUH7.5
Description: (§1) Flow cytofluorometry was used to evaluate the ability of some compounds of the invention to induce cell death, with particular reference to apoptosis. This latter phenomenon is characterized by morphological modification of the plasmatic membrane as a result of the translocation of the phospholipid phosphatidylserine (PS) in the plasmatic membrane from the cytoplasmic side to the outer surface of the cell. […] Annexin is detected because it is conjugated to a specific fluorochrome, thus allowing to distinguish apoptosis from necrotic phenomena, which are instead measured by the fluorescent dye propidium iodide, which penetrates freely in the cell having a damaged plasmatic membrane.
(§2) Both primary lymphocytic tumor cells taken from patients with chronic lymphatic leukemia (LLC) and humanized cell lines of neuroblastoma (SK-N-BE), hepatocarcinoma (HepG2 and HUH7.5) and breast cancer (MDA-MB-231) were used.
(§3) HepG2 (2×10^5 cells per well), HUH7.5 and MDA-MB-231 (1.5×10^5 cells per well) cells were seeded on a 6-well plate in Dulbecco's Modified Eagle Medium (DMEM), 10% FBS and cultured at 37° C. in a 5% CO2 atmosphere. After 24 hours, the medium was removed and replaced by DMEM containing the test compounds, previously dissolved in 100% dimethylsulfoxide, and diluted such that the final concentration of the same in cell incubation solutions was 0.5% (v/v). After 30 minutes incubation, 10% FBS was added, and the cells were incubated for 24 hours, then detached with trypsin, and analyzed by cytofluorimeter. LLC cells (1×10^6 cells per well) were seeded and cultured on 12-well plates in RPMI-1640 medium, 10% FBS, at 37° C. in a humified atmosphere containing 5% CO2. To this medium, test compounds were added, and incubation was carried out for 24 hours, after which time the cells were analyzed by cytofluorimeter.
(§4) The results obtained by cytofluorometry from three separate experiments executed in triplicate were tabulated, estimating the concentration required to cause 50% apoptosis (IC50), and standard deviation.

[2] = tested on: neuroblastoma (SK-N-BE) cells; experiment: Proapoptotic effect by flow cytofluorometry, SK-N-BE cells; format: cell-based; settings: Homo sapiens, three experiments in triplicate, read-out: IC50 ± S.D. (concentration required to cause 50% apoptosis), SK-N-BE
Description: as §1
Both primary lymphocytic tumor cells taken from patients with chronic lymphatic leukemia (LLC) and humanized cell lines of neuroblastoma (SK-N-BE), hepatocarcinoma (HepG2 and HUH7.5) and breast cancer (MDA-MB-231) were used. […]
as §4

[3] = tested on: breast cancer (MDA-MB-231) cells; experiment: Proapoptotic effect by flow cytofluorometry, MDA-MB-231 cells; format: cell-based; settings: Homo sapiens, 24 hours incubation, three experiments in triplicate, read-out: IC50 ± S.D. (concentration required to cause 50% apoptosis), MDA-MB-231
Description: as §1, §2, §3, §4

[4] = tested on: hepatocarcinoma (HepG2) cells; experiment: Proapoptotic effect by flow cytofluorometry, HepG2 cells; format: cell-based; settings: Homo sapiens, 24 hours incubation, three experiments in triplicate, read-out: IC50 ± S.D. (concentration required to cause 50% apoptosis), HepG2
Description: as §1, §2, §3, §4

[5] = tested on: primary lymphocytic tumor cells taken from patients with chronic lymphatic leukemia (LLC); experiment: Proapoptotic effect by annexin V/propidium iodide flow cytofluorometry, LLC cells; format: cell-based; settings: Homo sapiens, 24 hours incubation, three experiments in triplicate, read-out: IC50 ± S.D. (concentration required to cause 50% apoptosis), LLC
Description: as §1, §2, §3
Leukemic lymphocytes were isolated, following heparinized venous withdrawal from peripheral blood of LLC patients, diluted with saline in a 1:3 ratio, layered on a Ficoll/Hypaque (F/H) density gradient, centrifuged at 900 rpm for 20 minutes, at 20° C. without brakes. Mononuclear cells and platelets, concentrating on top of the F/H gradient, were separated after 2 further washings, with centrifugation at 400 rpm at room temperature. The mononuclear cells thus obtained were washed 3 times with PBS, centrifuged for 10 minutes at 400 rpm, at 20° C. with brakes, and resuspended in RPMI 1640.
In most LLC cases, the percentage of leukemic B cells was higher than 85% with respect to all mononuclear cells from peripheral blood.
as §4

[6] = tested on: breast cancer and multiple myeloma cells; settings: cited from earlier work

Structure (SMILES)	IC50 [1] [nM]	IC50 [2] [nM]	IC50 [3] [nM]	IC50 [4] [nM]	IC50 [5] [nM]	IC50 ([6]; breast cancer and multiple myeloma cells, articles of D. Ju et al., read-out: induction of caspase-dependent apoptosis (IC50 values)) [nM]	cytotoxic effects of dyclonine alone ([6]; in vitro, alone without MG132 or bortezomib)
CCCCCCOc1ccc(C(=O)CCN2CCOCC2)cc1 [Compound 1, 1-(4-(hexyloxy)phenyl)-3-morpholinopropan-1-one]	1580 ± 70	1850 ± 90	1610 ± 80	1670 ± 150	1610 ± 100		
CCCCCCCOc1ccc(C(=O)CCN2CCOCC2)cc1 [Compound 2, 1-(4-(heptyloxy)phenyl)-3-morpholinopropan-1-one]	1580 ± 100	1640 ± 90	1610 ± 70	1550 ± 130	1620 ± 150		
CCCCCCOc1ccc(C(=O)CCN2CCCCC2)cc1 [Compound 3, 1-(4-(hexyloxy)phenyl)-3-(piperidin-1-yl)propan-1-one]	2750 ± 90	3000 ± 170	2600 ± 100	3070 ± 90	2530 ± 150		
CCCCCCCOc1ccc(C(=O)CCN2CCCCC2)cc1 [Compound 4, 1-(4-(heptyloxy)phenyl)-3-(piperidin-1-yl)propan-1-one]	2780 ± 130	2930 ± 80	3010 ± 150	3000 ± 150	3030 ± 70		
CCCCCCCOc1ccc(C(=O)CCN2CCN(C)CC2)cc1 [Compound 5, 1-(4-(heptyloxy)phenyl)-3-(4-methylpiperazin-1-yl)propan-1-one]	1610 ± 80	1550 ± 100	1480 ± 90	1600 ± 50	1450 ± 60		
CCCCCSc1ccc(C(=O)CCN2CCOCC2)cc1 [Compound 6, 3-morpholino-1-(4-(pentylthio)phenyl)propan-1-one]	8250 ± 120	8200 ± 100	8000 ± 70	8000 ± 100	8500 ± 80		
CCCCCCSc1ccc(C(=O)CCN2CCOCC2)cc1 [Compound 7, 1-(4-(hexylthio)phenyl)-3-morpholinopropan-1-one]	560 ± 200	530 ± 90	500 ± 200	490 ± 110	500 ± 200		
CCCCCCCSc1ccc(C(=O)CCN2CCOCC2)cc1 [Compound 8, 1-(4-(heptylthio)phenyl)-3-morpholinopropan-1-one]	630 ± 80	600 ± 50	660 ± 120	570 ± 80	550 ± 90		
CCCCCSc1ccc(C(=O)CCN2CCCCC2)cc1 [Compound 9, 1-(4-(pentylthio)phenyl)-3-(piperidin-1-yl)propan-1-one]	1730 ± 90	1850 ± 140	1800 ± 60	1660 ± 100	1750 ± 40		
CCCCCCSc1ccc(C(=O)CCN2CCCCC2)cc1 [Compound 10, 1-(4-(hexylthio)phenyl)-3-(piperidin-1-yl)propan-1-one]	1800 ± 110	1670 ± 50	1800 ± 90	1700 ± 50	1870 ± 70		
CCCCCCCSc1ccc(C(=O)CCN2CCCCC2)cc1 [Compound 11, 1-(4-(heptylthio)phenyl)-3-(piperidin-1-yl)propan-1-one]	490 ± 70	540 ± 90	560 ± 60	590 ± 10	500 ± 40		
CCCCCSc1ccc(C(=O)CCN2CCN(C)CC2)cc1 [Compound 12, 3-(4-methylpiperazin-1-yl)-1-(4-(pentylthio)phenyl)propan-1-one]	14540 ± 120	13170 ± 120	11850 ± 70	12950 ± 50	12200 ± 110		
CCCCCCSc1ccc(C(=O)CCN2CCN(C)CC2)cc1 [Compound 13, 1-(4-(hexylthio)phenyl)-3-(4-methylpiperazin-1-yl)propan-1-one]	600 ± 120	670 ± 90	650 ± 10	590 ± 60	650 ± 10		
CCCCCCCSc1ccc(C(=O)CCN2CCN(C)CC2)cc1 [Compound 14, 1-(4-(heptylthio)phenyl)-3-(4-methylpiperazin-1-yl)propan-1-one]	520 ± 100	450 ± 70	470 ± 100	500 ± 90	440 ± 60		
CCCCC[Se]c1ccc(C(=O)CCN2CCOCC2)cc1 [Compound 15, 3-morpholino-1-(4-(pentylselenyl)phenyl)propan-1-one]	12200 ± 80	15710 ± 130	13900 ± 140	11110 ± 70	14200 ± 170		
CCCCCC[Se]c1ccc(C(=O)CCN2CCOCC2)cc1 [Compound 16, 1-(4-(hexylselenyl)phenyl)-3-morpholinopropan-1-one]	2600 ± 100	2470 ± 60	2580 ± 90	2620 ± 80	2530 ± 90		
CCCCCCC[Se]c1ccc(C(=O)CCN2CCOCC2)cc1 [Compound 17, 1-(4-(heptylselenyl)phenyl)-3-morpholinopropan-1-one]	500 ± 100	500 ± 60	550 ± 70	600 ± 70	550 ± 40		
CCCCC[Se]c1ccc(C(=O)CCN2CCCCC2)cc1 [Compound 18, 1-(4-(pentylselenyl)phenyl)-3-(piperidin-1-yl)propan-1-one]	8300 ± 80	8000 ± 100	7900 ± 100	7500 ± 150	8500 ± 150		
CCCCCC[Se]c1ccc(C(=O)CCN2CCCCC2)cc1 [Compound 19, 1-(4-(hexylselenyl)phenyl)-3-(piperidin-1-yl)propan-1-one]	11980 ± 110	11650 ± 60	13010 ± 120	12480 ± 120	10100 ± 80		
CCCCCCC[Se]c1ccc(C(=O)CCN2CCCCC2)cc1 [Compound 20, 1-(4-(heptylselenyl)phenyl)-3-(piperidin-1-yl)propan-1-one]	1730 ± 90	1680 ± 130	1750 ± 100	1740 ± 50	1700 ± 50		
CCCCC[Se]c1ccc(C(=O)CCN2CCN(C)CC2)cc1 [Compound 21, 3-(4-methylpiperazin-1-yl)-1-(4-(pentylselenyl)phenyl)propan-1-one]	13600 ± 90	13880 ± 130	14230 ± 140	15570 ± 30	14160 ± 90		
CCCCCC[Se]c1ccc(C(=O)CCN2CCN(C)CC2)cc1 [Compound 22, 1-(4-(hexylselenyl)phenyl)-3-(4-methylpiperazin-1-yl)propan-1-one]	8000 ± 60	8200 ± 70	8100 ± 70	8100 ± 100	8150 ± 70		
CCCCCCC[Se]c1ccc(C(=O)CCN2CCN(C)CC2)cc1 [Compound 23, 1-(4-(heptylselenyl)phenyl)-3-(4-methylpiperazin-1-yl)propan-1-one]	1690 ± 80	1750 ± 90	1700 ± 90	1700 ± 50	1770 ± 50		
CCCCCCCc1ccc(C(=O)CCN2CCOCC2)cc1 [Compound 24, 1-(4-heptylphenyl)-3-morpholinopropan-1-one]	500 ± 65	500 ± 170	550 ± 80	500 ± 80	500 ± 150		
CCCCCCCc1ccc(C(=O)CCN2CCCCC2)cc1 [Compound 25, 1-(4-heptylphenyl)-3-(piperidin-1-yl)propan-1-one]	1500 ± 100	1600 ± 100	1650 ± 750	1550 ± 90	1500 ± 80		
CCCCCCCc1ccc(C(=O)CCN2CCN(C)CC2)cc1 [Compound 26, 1-(4-heptylphenyl)-3-(4-methylpiperazin-1-yl)propan-1-one]	950 ± 60	750 ± 130	900 ± 50	800 ± 70	850 ± 60		
CCCCOc1ccc(C(=O)CCN2CCCCC2)cc1 [dyclonine]						15000 to 30000	very limited cytotoxic effects
